In patent US6864285B1, “Covalent derivatives of alkanolamides of monocarboxylic and dicarboxylic acids functionally active on the CB2 cannabinoid receptor” (Innovet Italia S.r.l., priority 1999, dated 2005):
Values after ≈ are worked out from the molar mass of the structure shown. Read-outs that look alike come from different tables or passages of the source.

What was measured:
physchem = conditions: organic solvent or mixture
[1] = Lipid/water partition parameter RM from thin-film chromatography on silica gel; type: physicochemical
Protocol: The chemical and physical characteristics of the derivatives according to the invention were evaluated by quantitative measurement of the lipid/water partition parameter.
A useful parameter for evaluating the properties of a compound in relation to its possible absorption is in fact constituted by the coefficient of partition between the lipid phase and the aqueous phase, which is considered to be an expression of its lipophilicity and its degree of hydrophilicity. […] For the purpose of evaluating the characteristics of the derivatives of the invention, the partition parameter RM between the lipid and the aqueous phase, extrapolated from thin-film partition chromatography, was calculated; this parameter is commonly used to evaluate the lipophilic characteristics of compounds (Tomlinson E. J. Chromatogr. 1975, 113, 1) and is commonly used, for example, for local anaesthetics, in which a correlation has been shown between this parameter and biological activity (Bachrata M. et al. J. Chromatogr. 1979, 171, 29-36).
The partition parameter RM between the lipid phase and the aqueous phase was calculated both for the derivatives and for the non-substituted alkanolamides, from the Rf value obtained by thin-film chromatography on silica gel (particles of […], mean porosity 60 Å, thickness 0.25 mm on glass plate) in accordance with the formula: RM=log (1/Rf−1) and the ΔRM was obtained from the difference between the RM coefficients of the derivative and of the corresponding alkanolamide.

CB1 receptor = target: T1, CB1 receptor (Mus musculus, UniProt P47746); test: Binding of [3H]SR141716A to membranes of N18TG2 cells; conditions: cell membranes, 300 pM ligand, 90' at 30° C.; read-out: Ki CB1 Receptor N18TG2 cells Lig. [3H]SR141716A
T1 construct: endogenous in cells; host or cells: mouse N18TG2 neuroblastoma cells
From the text: (§1) Effect of alkanolamide molecules on the binding of the synthetic ligands of the CB2 and CB1 cannabinoid receptors, respectively.
(§2) Rat RBL-2H3+ leukemic basophilic cells, which selectively express the cannabinoid CB2 receptor, and mouse N18TG2 neuroblastoma cells which selectively express the CB1 cannabinoid receptor were used. The cells were cultivated as described above (Facci L. et al. (1995) Proc. Natl: Acad: Sci. U.S.A. 92:: 3376-3380; Bisogno T. et al. 1997 J. Biol. Chem., 272: 3315-3323). WIN 55,212.2 was used as the selectively agonist synthetic ligand for the CB2 receptor.
SR141716A was used as the selective antagonist for the CB1 receptor.
(§3) [^3H]SR141716A (55 Ci/mmol) was supplied by Amersham; [^3H]WIN55,212-2 (43 Ci/mmol) was supplied by NEN. The binding tests were performed with membranes of the cells resuspended in 50 mMol Tris pH 7.0 buffer; 2.5 mMol MgCl2, 0.8 mMol EDTA; 0.05% bovine serum albumin (BSA); 0.01% ethanol, in the presence of 100 μM of phenyl-methyl-sulphonyl fluoride (PMSF-Sigma), with the use, of 300 pM of [^3H]SR141716A and of [^3H]WIN55,212-2, respectively, as the ligand.
(§4) The membranes were incubated for 90′ at 30° C. and filtered on glass microfibre filters (GFC-Whatman) and the radioactivity was detected by liquid scintillation. The specific binding was calculated with the use of either 10 μM SR141716A or 10 μM HU-210.
(§5) The Ki values were calculated by Chang-Prusoff's equation and expressed as concentration μM.

[2] = Solubility in water and in organic solvents (chemical and physical characteristics); conditions: in words
CB2 receptor [3] = target: T2, CB2 receptor (Rattus norvegicus, UniProt Q9QZN9); test: Binding of [3H]WIN55,212-2 to membranes of RBL-2H3+ cells; conditions: cell membranes, 300 pM ligand, 90' at 30° C.; read-out: Ki CB2 receptor RBL-2H3 + cells Lig. [3H]WIN55, 212-2
T2 construct: endogenous in cells; host or cells: rat RBL-2H3+ leukemic basophilic cells
T2 sequence (Q9QZN9 1-360): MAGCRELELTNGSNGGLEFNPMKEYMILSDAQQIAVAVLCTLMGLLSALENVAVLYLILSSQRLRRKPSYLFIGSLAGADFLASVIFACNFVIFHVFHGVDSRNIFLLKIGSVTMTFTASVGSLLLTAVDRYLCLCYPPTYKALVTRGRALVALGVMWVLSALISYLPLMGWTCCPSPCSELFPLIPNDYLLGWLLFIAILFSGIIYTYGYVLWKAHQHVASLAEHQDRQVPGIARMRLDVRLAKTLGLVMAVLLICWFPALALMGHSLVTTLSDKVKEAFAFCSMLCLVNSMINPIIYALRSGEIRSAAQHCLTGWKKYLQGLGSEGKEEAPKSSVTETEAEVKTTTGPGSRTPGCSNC
From the text: as §1, §2
HU-210 was used as the selective […] for the CB2 receptor.
as §3, §4, §5

CB2 receptor [4] = target: T2, CB2 receptor; test: Stimulation of cyclic AMP (cAMP) by forskolin in RBL-2H3+ cells; type: cell-based; conditions: 1 μM forskolin
Protocol: Effect of alkanolamide molecules on the stimulation of cyclic AMP (cAMP) by forskolin.
The tests were performed with the aim of checking whether the binding of the molecules of the present invention to the CB2 receptor has functional significance.
It is in fact known that the function activation of the CB2 receptor brings about, at intracellular level, inhibition of the enzymatic activity of adenylate cyclase and a reduction in the levels of the second-messenger cAMP, resulting in an increase in the conductance of the channels to potassium and an inhibition of proteic phosphorylation (Childers S. R. et al. Biochem. Parmacol. 1996, 52: 819-827).
The dosages of cAMP were performed on RBL-2H3+ cells flowing together in Petri dishes with six wells (Falcon); the cells were stimulated for 10′ at 37° C. with 1 μM of forskolin (Fluka) in 400 μl of medium without serum, containing 20 mM HEPES, 0.1 mg/ml BSA and 0.1 mM 1-methyl-3-isobutyl xanthine (Sigma) and either ethanol or alkanolamide molecules with or without the addition of HU-210. After incubation, the cells were extracted and the levels of cAMP were evaluated with a suitable Amersham kit in accordance with the producer's method. The data were expressed in IC50 μM.

T1 sequence (P47746 whole entry): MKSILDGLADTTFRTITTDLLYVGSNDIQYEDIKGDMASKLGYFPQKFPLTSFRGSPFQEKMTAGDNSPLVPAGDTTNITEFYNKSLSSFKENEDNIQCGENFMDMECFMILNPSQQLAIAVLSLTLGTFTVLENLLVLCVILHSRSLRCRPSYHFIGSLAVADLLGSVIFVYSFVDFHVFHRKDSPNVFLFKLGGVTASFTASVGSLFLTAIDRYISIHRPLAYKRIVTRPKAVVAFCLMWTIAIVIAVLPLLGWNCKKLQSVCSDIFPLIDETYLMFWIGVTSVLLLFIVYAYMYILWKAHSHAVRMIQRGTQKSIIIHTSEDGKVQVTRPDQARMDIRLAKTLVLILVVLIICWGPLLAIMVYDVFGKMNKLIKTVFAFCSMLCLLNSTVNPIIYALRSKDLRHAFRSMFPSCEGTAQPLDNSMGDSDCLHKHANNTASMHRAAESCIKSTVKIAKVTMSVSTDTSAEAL

CCCCCCCCCCCCCCCC(=O)NCCOC(=O)NCC(=O)OCC [Example 6, N-[2-[(ethoxycarbonylmethyl)aminocarbonyl]oxyethyl] hexadecanamide]
solubility (physchem; ethanol): 10000 µg/mL (≈ 23.3 mM) | solubility (physchem; n-octanol): 10000 µg/mL (≈ 23.3 mM) | ΔRM solvent 1 ([1]; Solvent 1: 100% ethyl acetate, RM of derivative minus RM of corresponding alkanolamide): −0.612 | RM solvent 1 ([1]; Solvent 1: 100% ethyl acetate, RM=log (1/Rf−1)): 0.176 | RF solvent 1 ([1]; Solvent 1: 100% ethyl acetate, silica gel): 0.40 | ΔRM solvent 2 ([1]; Solvent 2: heptane:isopropanol:ethyl acetate:H2O 40:20:50:2, RM of derivative minus RM of corresponding alkanolamide): −0.175 | RM solvent 2 ([1]; Solvent 2: heptane:isopropanol:ethyl acetate:H2O 40:20:50:2, RM=log (1/Rf−1)): −0.140 | RF solvent 2 ([1]; Solvent 2: heptane:isopropanol:ethyl acetate:H2O 40:20:50:2, silica gel): 0.58 | Ki (CB1 receptor): > 15000 nM | solubility in water [2]: slightly soluble | Ki (CB2 receptor [3]): 1 ± 0.8 nM | IC50 (CB2 receptor [4]; 10' at 37° C., read-out: IC50 on forskolin-stimulated cAMP): 1900 nM | IC50 (CB2 receptor [4]; + HU-210 (0.5 μM), read-out: IC50 on forskolin-stimulated cAMP with HU-210): > 20000 nM
